Values of other authors, collected in patent publication US12029740B2 (NANOCOPOEIA, LLC, priority 2020, dated 2024).
Structures can show the parent of a compound that is named as a salt.

Assays:
[1] = low/moderate aqueous solubility and low permeability

Biopharmaceutical Classification System (BCS) class [1]	solubility with increasing pH	Structure (SMILES)
Class IV	–	Cc1cn(-c2cc(NC(=O)c3ccc(C)c(Nc4nccc(-c5cccnc5)n4)c3)cc(C(F)(F)F)c2)cn1 [Nilotinib monohydrochloride monohydrate]
–	significantly decreases	Cc1cn(-c2cc(NC(=O)c3ccc(C)c(Nc4nccc(-c5cccnc5)n4)c3)cc(C(F)(F)F)c2)cn1 [nilotinib, 4-methyl-N-[3-(4-methyl-1H-imidazol-1-yl)-5-(trifluoromethyl)phenyl]-3-[[4-(3-pyridinyl)-2-pyrimidinyl]amino]-benzamide]
